According to PubChem BioAssay (NCI):
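The compound was tested at five concentrations on cells cultured in 96-well plates, with a 48-hour exposure period. TGI is the concentration that stops growth completely.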

Key:
Experiment in all cases: growth of human tumour cells (NCI), 48 h
[1] = tested on: HOP-92 NSCLC
[2] = tested on: NCI-H522 lung
[3] = tested on: SW-620 colon
[4] = tested on: MDA-MB-435
[5] = tested on: SK-MEL-5 melanoma
[6] = tested on: SF-268 CNS
[7] = tested on: NCI-H226 lung
[8] = tested on: 786-0 renal
[9] = tested on: NCI/ADR-RES ovarian
[10] = tested on: HT29 colon
[11] = tested on: UO-31 renal
[12] = tested on: UACC-257 melanoma

SMILES	TGI [1] [µM]	TGI [2] [µM]	TGI [3] [µM]	TGI [4] [µM]	TGI [5] [µM]	TGI [6] [µM]	TGI [7] [µM]	TGI [8] [µM]	TGI [9] [µM]	TGI [10] [µM]	TGI [11] [µM]	TGI [12] [µM]
CCOC(=O)CSc1nc(N)c2c(-c3ccccc3)c3c(nc2n1)CCCC3	> 100	> 100	> 100	> 100	> 100	> 100	> 100	> 100	> 100	> 100	> 100	> 100
CC(C)C(Br)CCC1=CCC(Br)(Br)C1 (stereo not given)	19.5	6.81	12.2	22.5	18.3	31.2	26.9	29.6	62.1	28.6	21.9	28.2
CC1=CC2C3(C)C(C)(C(C)=CP3(=O)c3c(C(C)C)cc(C(C)C)cc3C(C)C)C1P2(=O)c1c(C(C)C)cc(C(C)C)cc1C(C)C (stereo not given)	7.97	8.64	13.6	5.33	3	12.1	6.08	5.47	9.89	6.29	4.36	3.34
O=C(CCc1cc(O)cc(O)c1)NCCc1cc(OCc2ccccc2)cc(OCc2ccccc2)c1	45.3	28.2	53.3	37.6	25.6	43.2	51.3	41	55.2	41.9	15.3	70
O=c1ccc2ccc(S)cc2o1	> 100	> 100	> 100	> 100	> 100	> 100	> 100	> 100	> 100	> 100	> 100	> 100
CC(C)NC(=O)OCc1c(COC(=O)NC(C)C)n(C)c2c1ccc1sccc12	27.3	15.5	> 100	35.1	26.3	21.5	> 30.1	36.8	> 55.7	> 82.6	68.7	39.5
COC(=O)[C@]1(C)CCC[C@@]2(C)C1CC[C@]13C=C(C(C)C)[C@H](CC21)CC3(Cl)C#N (stereo not given in full)	> 100	> 100	> 100	> 100	> 100	> 100	75.4	> 100	> 100	> 100	> 100	> 100
Cc1c(C)n(-c2ccccc2)c2nc(S(C)=O)nc(S(C)=O)c12 (stereo not given)	4.62	4.59	3.86	9.76	6.1	22.8	36.2	10.1	59.2	25.1	20.2	25.9
CC(C)Oc1cccc(N2C(n3ccnc3)=Nc3ccncc3S2(=O)=O)c1	25.7	22	40.1	32.7	26.3	30.2	42.5	22.1	62	34.9	38.3	32
O=C(NCc1ccccc1)c1cc2ccccc2oc1=Nc1cccc(C(F)(F)F)c1	> 100	> 100	> 100	> 100	70.8	> 100	97.7	> 100	> 100	> 100	> 100	84
